Reference: US20170204102A1, “AGRICULTURAL AGENT CONTAINING 2,5-DIKETOPIPERAZINE DERIVATIVE AS ACTIVE INGREDIENT” (NAPRO BIOTEC INC., priority 2010, published 2017)

Key:
[1] = tested on: cucumber leaf; test: Promotion of growth of cucumber leaf; details: Cucumis sativus, read-out: Width of leaf
Procedure: Plant leaves were tested with test compounds by drenching. […] 3-5 days later, the width of the leaves was measured again to compare the growth of the leaves relative to the control group.

[2] = tested on: Pectobacterium carotovorum SCC1; test: Inhibition of soft rot lesion in tobacco leaf; format: in vivo; details: Table 5, control 73.75
[3] = tested on: Pectobacterium carotovorum SCC1; test: Inhibition of soft rot lesion in cucumber leaf; format: in vivo; details: Table 8, control 100

SMILES | response vs control in vivo at 1 ppm [1] [%] | response vs control in vivo at 10 ppm [1] [%] | response vs control in vivo at 100 ppm [1] [%] | Area of lesion ([2]; 1 ppm) [%] | Area of lesion ([2]; 10 ppm) [%] | Area of lesion ([2]; 100 ppm) [%] | Area of lesion ([3]; 1 ppm) [%] | Area of lesion ([3]; 10 ppm) [%] | Area of lesion ([3]; 100 ppm) [%]
O=C1NC(CO)C(=O)N2CCCC12 (stereo not drawn) [Compound No. 32, 3-hydroxymethylhexahydropyrrolo[1,2-a]pyrazin-1,4-dione] | 98.7 | 124 | 112 | – | – | – | – | – | –
CC(O)C1NC(=O)C2CCCN2C1=O (stereo not drawn) [Compound No. 33, 3-(1-hydroxyethyl)hexahydropyrrolo[1,2-a]pyrazin-1,4-dione] | 109 | 117 | 110 | – | – | – | – | – | –
CC(O)C1NC(=O)C2CCCN2C1=O (stereo not drawn) [Compound No. 56] | – | – | – | 7.5 | 10 | 10 | 5 | 80 | 70
CSCC[C@H]1NC(=O)[C@@H]2CCCN2C1=O [Compound No. 57] | – | – | – | 10 | 10 | 12.5 | 70 | 72.5 | 60
O=C1N[C@H](Cc2ccccc2)C(=O)N2CCC[C@@H]12 [Compound No. 58] | – | – | – | 35 | 25 | 7.5 | 75 | 57.5 | 80
NC(=O)CC[C@H]1NC(=O)[C@@H]2CCCN2C1=O [Compound No. 59] | – | – | – | 12.5 | 32.5 | 47.5 | 30 | 32.5 | 80
CCC(C)C1NC(=O)C2CCCN2C1=O (stereo not drawn) [Compound No. 60] | – | – | – | 33.7 | 25 | 7.5 | 50 | 60 | 27.5
CC(C)C[C@H]1NC(=O)[C@H]2CCCN2C1=O [Compound No. 61] | – | – | – | 10 | 10 | 17.5 | 5 | 70 | 75
O=C1N[C@H](Cc2ccccc2)C(=O)N2CCC[C@H]12 [Compound No. 63] | – | – | – | 15 | 22.5 | 65 | 82.5 | 42.5 | 50
O=C1N[C@H](Cc2ccc(O)cc2)C(=O)N2CCC[C@H]12 [Compound No. 64] | – | – | – | 55 | 37.5 | 60 | 50 | 55 | 65
CSCC[C@H]1NC(=O)[C@H]2CCCN2C1=O [Compound No. 65] | – | – | – | 60 | 57.5 | 52.5 | – | – | –
CC(O)C1NC(=O)C2CCCN2C1=O (stereo not drawn) [Compound No. 66] | – | – | – | 35 | 37.5 | 37.5 | – | – | –
CCC(C)C1NC(=O)C2CCCN2C1=O (stereo not drawn) [Compound No. 67] | – | – | – | 25 | 35 | 40 | – | – | –
NC(=O)CC1NC(=O)C2CCCN2C1=O (stereo not drawn) [Compound No. 68, 3-carbamoylmethylhexahydropyrrolo[1,2-a]pyrazin-1,4-dione] | – | – | – | 10 | 7.5 | 30 | – | – | –
